Results as given in PubChem BioAssay (NCI).
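Following 48 hours of exposure in 96-well plates, responses at five concentrations were used to interpolate endpoints linearly. GI50 is the concentration that inhibits growth by half. Definition used: TGI = concentration required for complete inhibition of growth.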

Legend:
Experiment in all cases: inhibition of tumour cell growth, NCI panel, 48 h
786-0 renal = tested on: 786-0 renal
ACHN renal = tested on: ACHN renal
DU-145 prostate = tested on: DU-145 prostate
IGROV1 ovarian = tested on: IGROV1 ovarian
OVCAR-3 ovarian = tested on: OVCAR-3 ovarian
RPMI-8226 leukemia = tested on: RPMI-8226 leukemia
SK-MEL-28 melanoma = tested on: SK-MEL-28 melanoma
SK-MEL-5 melanoma = tested on: SK-MEL-5 melanoma
SNB-75 CNS = tested on: SNB-75 CNS
A498 renal = tested on: A498 renal

Row | SMILES | GI50 (786-0 renal) [µM] | TGI (786-0 renal) [µM] | GI50 (ACHN renal) [µM] | TGI (ACHN renal) [µM] | GI50 (DU-145 prostate) [µM] | TGI (DU-145 prostate) [µM] | GI50 (IGROV1 ovarian) [µM] | TGI (IGROV1 ovarian) [µM] | GI50 (OVCAR-3 ovarian) [µM] | TGI (OVCAR-3 ovarian) [µM] | GI50 (RPMI-8226 leukemia) [µM] | TGI (RPMI-8226 leukemia) [µM] | GI50 (SK-MEL-28 melanoma) [µM] | TGI (SK-MEL-28 melanoma) [µM] | GI50 (SK-MEL-5 melanoma) [µM] | TGI (SK-MEL-5 melanoma) [µM] | GI50 (SNB-75 CNS) [µM] | TGI (SNB-75 CNS) [µM] | TGI (A498 renal) [µM] | GI50 (A498 renal) [µM]
1 | CCOC(=O)c1c(C)n(Cc2ccc(Cl)cc2Cl)c2c1cc(O)c1[nH]c(Cc3ccccc3)nc12 | 3.67 | 13.7 | 3.49 | 13.4 | 3.07 | 8.66 | 3.22 | 15.8 | 2.97 | 8.13 | 1.92 | 3.9 | 13 | 27.7 | 1.58 | 3.25 | 5.89 | 30.8 |  | 
2 | COC(=O)C(C(=O)C(=O)Nc1nc2ccc(OC)cc2s1)c1cnc2ccccc2n1 (stereo unspecified) |  | > 100 |  | > 100 |  |  |  | > 100 |  | > 100 |  | > 100 |  | > 100 |  | > 100 |  | > 100 | > 100 | 
3 | CC(C)(C)c1ccc(OCCCCCCCN2CCNCC2)cc1 | 1.63 | 3.07 |  |  | 1.78 | 3.37 | 1.92 | 3.66 | 1.63 | 3.12 | 1.83 | 4.25 |  |  | 1.82 | 3.4 | 1.57 | 3.74 |  | 
4 | NNC(=O)C(=O)N/N=C1\CCCC1C(=O)CCC(=O)Nc1cccc(Cl)c1 (stereo unspecified) |  | > 100 |  | > 100 |  |  |  | > 100 |  | > 100 |  | > 100 |  | > 100 |  | > 100 |  | > 100 |  | 
5 | Cc1cc(N)c2cc(NC(=O)/C=C\c3ccccc3Cl)ccc2n1 | 0.924 | 2.42 | 1.83 | 3.26 | 1.45 | 2.87 | 1.61 | 3.07 | 1.31 | 2.7 |  |  | 0.447 | 0.886 | 1.46 | 2.8 | 1.7 | 3.21 | 2.95 | 1.5
6 | NC(=O)c1c(-c2ccccc2)c(-c2ccccc2)cc2c(=O)c3ccccc3[nH]c12 |  | 21.5 |  | 37.7 |  |  |  | 74.3 |  | 46.4 |  | > 100 |  | 37.6 |  | 32.2 |  | 41.7 | 39.7 | 
7 | CCOC(=O)c1nc2sc(Cl)cn2c1/C=N/N=C(N)N | 18.6 | 39.8 | 22.3 | 53.4 | 24.8 | > 67.5 | 32.7 | > 100 | 21.5 | 42.1 | 13 | > 51.5 | 18.2 | 51 | 1.72 | > 23.1 | 27.9 | 68.8 |  | 
8 | O=C1CC[C@@H]2[C@H]3CCC(=O)c4c3c(c3cccc(O)c3c4O)O[C@@]23C(=O)c2cccc(O)c2C(O)=C13 | > 100 | > 100 | > 100 | > 100 | > 100 | > 100 | > 100 | > 100 |  |  | > 100 | > 100 | > 100 | > 100 | > 100 | > 100 | > 100 | > 100 |  | 
9 | CCCOC(=O)C1C(c2ccc(OC)cc2)NC(c2ccc(OC)cc2)C(C(=O)OCCC)S1(=O)=O (stereo unspecified) | > 100 | > 100 | > 100 | > 100 |  |  | > 100 | > 100 | > 100 | > 100 | > 100 | > 100 | > 100 | > 100 | > 100 | > 100 | > 100 | > 100 | > 100 | 
10 | CCCCCCCCCCCCNC(=S)OCCCC |  | > 100 |  | > 100 |  |  |  | > 100 |  |  |  | 51 |  | > 100 |  | > 100 |  | > 100 | > 100 | 
11 | COc1c(O)ccc(/C=N/NC(=S)NCOCCOC(C)=O)c1OC |  | > 100 |  | > 100 |  |  |  | > 100 |  | > 100 |  |  |  | > 100 |  | > 100 |  | > 100 | > 100 | 
12 | CC1Nc2ccccc2NC1C=C(C#N)C#N (stereo unspecified) |  | 29.6 |  | 32.7 |  |  |  | 37.8 |  | 29.4 |  | 29.2 |  | 31 |  | 32.4 |  | 30.3 |  | 
13 | COc1ccc(C2=NC(CO)[C@H](c3ccccc3)O2)cc1OC (stereo partly specified) |  | > 100 |  | > 100 |  |  |  | > 100 |  | > 100 |  |  |  |  |  | > 100 |  | > 100 | > 100 | 
14 | NNC(=S)N/N=C(\c1nc2ccc(Cl)cc2[nH]c1=O)C(O)c1cccc([N+](=O)[O-])c1 (stereo unspecified) |  | > 62.5 |  | > 100 |  |  |  | > 100 |  | > 100 |  | > 63.7 |  | > 79.4 |  | > 100 |  | > 100 | > 100 | 
15 | CC[C@@]1(O)C(=O)OCc2c1cc1n(c2=O)Cc2cc3c(N)c(OC)ccc3nc2-1 | < 0.0157 | 0.0738 | 0.0255 | 0.0767 |  |  | 0.223 | 2.45 | 0.328 | 1.65 | 0.135 | 2.32 | 0.466 |  | 0.0739 | 0.234 | 0.0339 | 0.265 | 0.726 | 0.156
16 | C=CCN=C1NC(=O)C(CC(=O)Nc2ccc([N+](=O)[O-])cc2[N+](=O)[O-])S1 (stereo unspecified) |  | > 100 |  | > 100 |  |  |  | > 100 |  | > 100 |  |  |  | > 100 |  | > 100 |  | > 100 | > 100 | 
17 | O=C1CC2=CCCC2O1 (stereo unspecified) |  | > 100 |  |  |  |  |  | > 100 |  | > 100 |  | > 100 |  | > 100 |  | > 100 |  | > 100 | > 100 | 
18 | O=C1c2ccccc2C(=O)N1CCN(CCN1C(=O)c2ccccc2C1=O)Cc1ccccc1 |  | > 100 |  | > 100 |  |  |  |  |  | > 100 |  | > 100 |  | > 100 |  | > 100 |  |  | > 100 | 
19 | CC(=O)CC(=O)Nc1ccc(OS(N)(=O)=O)cc1 |  | > 100 |  | > 100 |  |  |  | > 100 |  | > 100 |  | > 100 |  | > 100 |  | > 100 |  | > 100 | > 100 | 
